Results: PubChem BioAssay AID1259411 (Chemical Carcinogenesis Research Information System (CCRIS), 2018)
Activity calls are given as the source filed them. No rule for the calls is given here.

System: rodent carcinogenicity bioassays, tumor incidence
Assay: CCRIS carcinogenicity studies
Method in brief: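 NCI-built, expert-reviewed records of carcinogenicity and related test outcomes (mutagenicity, tumor promotion/inhibition) compiled from published and report sources, historical span 1985-2011, not updated.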

How did the carcinogen call (Species: HAMSTER, Route: ORAL, Tumor Site: Type of Lesion: FORESTOMACH, URINARY BLADDER) turn out when `O=CNNc1nc(-c2ccc([N+](=O)[O-])o2)cs1` was run?
Its carcinogen call is “active; positive”.

What about the carcinogen call (Species: MOUSE, Route: ORAL, Tumor Site: Type of Lesion: FORESTOMACH, HEMATOPOIETIC SYSTEM (LEUKEMIA), LUNG, STOMACH, Tumor Site: Type of Lesion: FORESTOMACH, HEMATOPOIETIC SYSTEM (LEUKEMIA), LUNG, STOMACH) of the same molecule?
The carcinogen call was “active; positive”.

What about the carcinogen call (Species: RAT, Route: ORAL, Tumor Site: Type of Lesion: HEMATOPOIETIC SYSTEM (LEUKEMIA), KIDNEY, LIVER, MAMMARY GLAND, Tumor Site: Type of Lesion: HEMATOPOIETIC SYSTEM (LEUKEMIA), KIDNEY, LIVER, MAMMARY GLAND) of the same molecule?
Its carcinogen call is “active; positive”.

Which carcinogen call (Species: MOUSE, Strain/Sex: CD-1/FEMALE, Route: INTRAPERITONEAL, Dose: 0, 175 NMOL (TOTAL DOSE) ADMINISTERED AS 1/7 OF DOSE WITHIN 24 HR AFTER BIRTH, 2/7 OF DOSE AT 8 D OLD, 4/7 OF DOSE AT 15, Tumor Site: Type of Lesion: LUNG: TUMOR) does the source give for `c1ccc2c(c1)ccc1cc3ccc4ccccc4c3nc12` here?
The carcinogen call was “active; positive”.

And the carcinogen call (Species: MOUSE, Strain/Sex: CD-1/MALE, Route: INTRAPERITONEAL, Dose: 0, 175 NMOL (TOTAL DOSE) ADMINISTERED AS 1/7 OF DOSE WITHIN 24 HR AFTER BIRTH, 2/7 OF DOSE AT 8 D OLD, 4/7 OF DOSE AT 15, Tumor Site: Type of Lesion: LIVER: TUMOR, LUNG: TUMOR)?
Its carcinogen call is “active; positive”.

With `O=C(CCl)c1ccccc1` as the molecule, how does the carcinogen call (Species: MOUSE, Strain/Sex: B6C3F1/FEMALE, Route: INHALATION, Dose: 0, 2, 4 MG/M3 6 HR/D 5 D/WK FOR 103 WK (STUDY DURATION: 105 WK), Dose: 0, 2, 4 MG/M3 6 HR/D 5 D/WK FOR 103 WK (STUDY DURATION: 105 WK)) read?
Its carcinogen call is “inactive; negative”.

And the carcinogen call (Species: MOUSE, Strain/Sex: B6C3F1/MALE, Route: INHALATION, Dose: 0, 2, 4 MG/M3 6 HR/D 5 D/WK FOR 103 WK (STUDY DURATION: 105 WK), Dose: 0, 2, 4 MG/M3 6 HR/D 5 D/WK FOR 103 WK (STUDY DURATION: 105 WK))?
The carcinogen call was “inactive; negative”.

And the carcinogen call (Species: RAT, Strain/Sex: F344/FEMALE, Route: INHALATION, Dose: 0, 1, 2 MG/M3 6 HR/D 5 D/WK FOR 103 WK (STUDY DURATION: 105 WK), Dose: 0, 1, 2 MG/M3 6 HR/D 5 D/WK FOR 103 WK (STUDY DURATION: 105 WK), Tumor Site: Type of Lesion: MAMMARY GLAND: FIBROADENOMA)?
The carcinogen call was “equivocal”.

And the carcinogen call (Species: RAT, Strain/Sex: F344/MALE, Route: INHALATION, Dose: 0, 1, 2 MG/M3 6 HR/D 5 D/WK FOR 103 WK (STUDY DURATION: 105 WK), Dose: 0, 1, 2 MG/M3 6 HR/D 5 D/WK FOR 103 WK (STUDY DURATION: 105 WK))?
Its carcinogen call is “inactive; negative”.

For `CCNC(=O)N(C)N=O`, which carcinogen call (Species: RAT, Strain/Sex: F344/FEMALE, Route: GAVAGE, Dose: 0, 20, 40 UMOL/WK IN CORN OIL/ETHYL ACETATE (2: 1) FOR 30 WK (LOW DOSE) OR 15 WK (HIGH DOSE) FOR TOTAL DOSES OF 0, 0.6;, Dose: 0, 20, 40 UMOL/WK IN CORN OIL/ETHYL ACETATE (2: 1) FOR 30 WK (LOW DOSE) OR 15 WK (HIGH DOSE) FOR TOTAL DOSES OF 0, 0.6;, Tumor Site: Type of Lesion: NERVOUS SYSTEM: TUMOR, THYMUS: TUMOR) is on record?
Its carcinogen call is “active; positive”.

And the carcinogen call (Species: RAT, Strain/Sex: F344/FEMALE, Route: ORAL, Dose: 0, 20, 40 UMOL/WK IN DRINKING WATER FOR 30 WK FOR TOTAL DOSES OF 0, 0.6, 1.2 MMOL (STUDY DURATION: LIFETIME), Dose: 0, 20, 40 UMOL/WK IN DRINKING WATER FOR 30 WK FOR TOTAL DOSES OF 0, 0.6, 1.2 MMOL (STUDY DURATION: LIFETIME), Tumor Site: Type of Lesion: NERVOUS SYSTEM: TUMOR, KIDNEY: TUMOR)?
Its carcinogen call is “active; positive”.

And the carcinogen call (Species: RAT, Strain/Sex: F344/MALE, Route: GAVAGE, Dose: 0, 20, 40 UMOL/WK IN CORN OIL/ETHYL ACETATE (2: 1) FOR 30 WK FOR TOTAL DOSES OF 0, 0.6, 1.2 MMOL (STUDY DURATION: LIFETI, Dose: 0, 20, 40 UMOL/WK IN CORN OIL/ETHYL ACETATE (2: 1) FOR 30 WK FOR TOTAL DOSES OF 0, 0.6, 1.2 MMOL (STUDY DURATION: LIFETI, Tumor Site: Type of Lesion: NERVOUS SYSTEM: TUMOR, TESTIS: MESOTHELIOMA)?
The carcinogen call was “active; positive”.

What about the carcinogen call (Species: RAT, Strain/Sex: F344/MALE, Route: ORAL, Dose: 0, 20, 40 UMOL/WK IN DRINKING WATER FOR 30 WK FOR TOTAL DOSES OF 0, 0.6, 1.2 MMOL (STUDY DURATION: LIFETIME), Dose: 0, 20, 40 UMOL/WK IN DRINKING WATER FOR 30 WK FOR TOTAL DOSES OF 0, 0.6, 1.2 MMOL (STUDY DURATION: LIFETIME), Tumor Site: Type of Lesion: LUNG: TUMOR, NERVOUS SYSTEM: TUMOR) of the same molecule?
Its carcinogen call is “active; positive”.

Which carcinogen call (Species: Mouse, Strain/Sex: B6C3F1/Female (50/Group), Route: Inhalation, Dose: 0, 8, 16, 32 ppm for 6 hr plus 14 min per d, 5 d per wk for 105 wk (Study duration: 105 wk), Dose: 0, 8, 16, 32 ppm for 6 hr plus 14 min per d, 5 d per wk for 105 wk (Study duration: 105 wk), Tumor Site: Type of Lesion: Respiratory epithelium: Adenoma (0/50; 2/50; 4/50; 6/50)) does the source give for `C#CCO` here?
The carcinogen call was “active; positive. conclusions of authors: some evidence of carcinogenic activity”.

What about the carcinogen call (Species: Mouse, Strain/Sex: B6C3F1/Male (50/Group), Route: Inhalation, Dose: 0, 8, 16, 32 ppm for 6 hr plus 14 min per d, 5 d per wk for 105 wk (Study duration: 105 wk), Dose: 0, 8, 16, 32 ppm for 6 hr plus 14 min per d, 5 d per wk for 105 wk (Study duration: 105 wk), Tumor Site: Type of Lesion: Respiratory epithelium: Adenoma (0/49; 1/50; 4/50; 7/50), Harderian gland (3/50; 10/50; 6/50; 11/50), Tumor Site: Type of Lesion: Respiratory epithelium: Adenoma (0/49; 1/50; 4/50; 7/50), Harderian gland (3/50; 10/50; 6/50; 11/50)) of the same molecule?
The carcinogen call was “active; positive. conclusions of authors: some evidence of carcinogenic activity based o”.

What about the carcinogen call (Species: Rat, Strain/Sex: F344/N / Female (50/Group), Route: Inhalation, Dose: 0, 16, 32, 64 ppm for 6 hr plus 14 min per d, 5 d per wk for 105 wk (Study duration: 105 wk), Dose: 0, 16, 32, 64 ppm for 6 hr plus 14 min per d, 5 d per wk for 105 wk (Study duration: 105 wk), Tumor Site: Type of Lesion: None) of the same molecule?
The carcinogen call was “inactive; negative. conclusions of authors: no evidence of carcinogenic activity”.

What about the carcinogen call (Species: Rat, Strain/Sex: F344/N / Male (50/Group), Route: Inhalation, Dose: 0, 16, 32, 64 ppm for 6 hr plus 14 min per d, 5 d per wk for 105 wk (Study duration: 105 wk), Dose: 0, 16, 32, 64 ppm for 6 hr plus 14 min per d, 5 d per wk for 105 wk (Study duration: 105 wk), Tumor Site: Type of Lesion: Respiratory epithelium: Adenoma (0/49; 0/49; 0/50; 3/49)) of the same molecule?
Its carcinogen call is “inactive; negative (although incidence at highest dose exceeded historical controls). con”.

With `CC(=O)Nc1c(I)c(C(=O)N[C@@H](C=O)[C@@H](O)[C@H](O)[C@H](O)CO)c(I)c(N(C)C(C)=O)c1I` as the molecule, how does the carcinogen call (Species: MOUSE, Strain/Sex: ICR/FEMALE, Route: INTRABRONCHIAL, Dose: 0, 75 µL ONCE ADMINISTERED TO WEANLING MICE (STUDY DURATION: LIFETIME), Tumor Site: Type of Lesion: LUNG: TUMOR) read?
The carcinogen call was “active; positive”.

Which results are given for `c1ccc2c(c1)ccc1cc3ccc4c(c3nc12)[C@@H]1O[C@@H]1CC4`?
carcinogen call (Species: MOUSE, Strain/Sex: CD-1/FEMALE, Route: INTRAPERITONEAL, Dose: 0, 28 NMOL (TOTAL DOSE) ADMINISTERED AS 1/7 OF DOSE WITHIN 24 HR AFTER BIRTH, 2/7 OF DOSE AT 8 D OLD, 4/7 OF DOSE AT 15): inactive; negative; carcinogen call (Species: MOUSE, Strain/Sex: CD-1/MALE, Route: INTRAPERITONEAL, Dose: 0, 28 NMOL (TOTAL DOSE) ADMINISTERED AS 1/7 OF DOSE WITHIN 24 HR AFTER BIRTH, 2/7 OF DOSE AT 8 D OLD, 4/7 OF DOSE AT 15): inactive; negative

What does the source list for `Nc1ccccc1C(=O)O`?
carcinogen call (Species: MOUSE, Strain/Sex: B6C3F1/FEMALE, Route: ORAL, Dose: 0, 25000, 50000 PPM IN DIET, Dose: 0, 25000, 50000 PPM IN DIET): inactive; negative; carcinogen call (Species: MOUSE, Strain/Sex: B6C3F1/MALE, Route: ORAL, Dose: 0, 25000, 50000 PPM IN DIET, Dose: 0, 25000, 50000 PPM IN DIET): inactive; negative; carcinogen call (Species: RAT, Strain/Sex: F344/FEMALE, Route: ORAL, Dose: 0, 15000, 30000 PPM IN DIET, Dose: 0, 15000, 30000 PPM IN DIET): inactive; negative; carcinogen call (Species: RAT, Strain/Sex: F344/MALE, Route: ORAL, Dose: 0, 15000, 30000 PPM IN DIET, Dose: 0, 15000, 30000 PPM IN DIET): inactive; negative
